Values joined by “and” are separate entries in the source; they are usually repeats but may differ in a detail not shown here. Equal values may be shown once.
Columns and labels:
[1] = Stability of sample during ORAC and CAA measurement; format: physicochemical
Procedure: Dose-dependent curves were obtained in both ORAC and CAA assay for single compounds resulting in IC50 determination (Table 2). In contrast, no anti-oxidant activity of the conjugates was detected in liver cells in all the concentration range tested up to 50 or 500 µM. In fact, such a large concentration is not expectable in plasma.

[2] = Ferric reducing antioxidant power (FRAP); format: biochemical; settings: mean ± standard error
Procedure: (§1) Ferric reducing antioxidant power (FRAP) and cupric reducing antioxidant capacity (CUPRAC) were measured using kits from Bioquochem (Llanera-Asturias, Spain) according to the manufacturer´s instructions and expressed as trolox equivalents (TE). To determine oxygen radical absorption capacity (ORAC), 73 µL of fluorescein (1.8 mg/L) solution in phosphate buffered saline (PBS, pH 7.4) was mixed with 2 µL of the samples (0–20 µM) in the wells of a 96-well plate. After 15 min incubation (37 °C), 25 µL of freshly prepared 2,2′-azo-bis(2-amidinopropane) dihydrochloride (AAPH, 60 mg/mL) was added to each well except for the negative control, where AAPH was replaced for PBS. The fluorescence (ex./em., 485/535 nm) was recorded immediately and for the next 2 h with the measurement step for 5 min using a microplate reader (SpectraMax i3 Multi-Mode Detection Platform, Molecular Devices, Wokingham, UK).
(§2) The oxidations in living organism caused by free radicals are usually undesirable processes damaging such important biomolecules as DNA, proteins and lipids. The application of antioxidants is one of the most straightforward means to protect these biomolecules from oxidative stress. Many assays are available for determination of antioxidant potential in vitro. These assays are based on the reduction of stable radicals (DPPH), on the competitive bleaching of a probe (ORAC) or on the reduction of iron ions (CUPRAC, FRAP). CUPRAC test is very similar to FRAP assay but is based on the reduction of Cu^2+ in a neutral pH, while FRAP test is based on Fe^3+ in acidic pH. As each assay suffers from some limitations, a set of antioxidant tests was used here to combine more parameters.

[3] = Cupric reducing antioxidant capacity (CUPRAC); format: biochemical; settings: mean ± standard error; values marked f: measurement disturbed by the formation of a precipitate
Procedure: as §1, §2

DPPH radical scavenging = format: biochemical; settings: 20 µM DPPH in methanol, 30 min, 25 °C, mean ± standard error
Procedure: The radical scavenging activity of the prepared conjugates, their parent compounds, their equimolar mixtures and retinol was evaluated as their capacity to scavenge 1,1-diphenyl-2-picrylhydrazyl radicals (DPPH, Sigma-Aldrich, Prague, Czech Republic), as described previously with minor modifications. Briefly, 15 µL of the tested substance (final concentration 0–20 mM in DMSO) was mixed with 285 µL of a freshly prepared methanolic DPPH solution (final concentration 20 µM) in a microtiter plate well. After 30 min at 25 °C, the absorbance at 517 nm was measured. The activity was expressed as the concentration of the compound required for reducing the absorbance to 50% (IC50) of its initial value.

HepG2 cell line = assay: Cellular antioxidant activity (CAA); format: cell-based; settings: Homo sapiens; HepG2 cells, DCFH-DA/AAPH; > = no activity noted at the highest concentration tested
Procedure: For cellular antioxidant activity (CAA) assay, the HepG2 cell line (ATCC, CCL-23TM, USA) was cultivated in Eagle’s Minimum Essential Medium (Sigma-Aldrich, USA) supplemented with 10% of foetal bovine serum, 2 mM L-glutamine and 1× Antibiotic Antimycotic Solution (Sigma-Aldrich, St. Louis, MO, USA) in a CO2 incubator (5% CO2, 37 °C, Thermo Fisher Scientific, Waltham, MA, USA) and passaged 2×/week using trypsin-EDTA solution. For the experiments, 100 µL of the cells (1 × 10^6 cells/mL, Cellometer Auto T4 Bright Field Cell Counter, Nexcelom Bioscience, Lawrence, MA, USA) were split into 96-well plates. After 24 h, the cells were washed 3× with PBS (MultiFlo Multi-Mode Dispenser, BioTek, USA) and Dulbecco’s Modified Eagle’s Medium (Sigma-Aldrich, St. Louis, MO, USA) supplemented with the 2′,7′-dichlorodihydrofluorescein diacetate (DCFH-DA, 0.0125 mg/mL) was added to each well together with the tested samples in the concentration range 0–500 µM. After incubation (1 h, CO2 incubator, 37 °C), the medium was manually replaced for AAPH solution (0.16 mg/mL) and the fluorescence (ex./em. 485/540 nm) was recorded immediately for 2 h with 5 min steps.
(§3) The main disadvantage of DPPH scavenging assay is the use of an unnatural radical. Such methods based on competitive probe reactions or indirect methods based on persistent radicals should only be used for preliminary screening purposes. Thus, to better characterize the potential of the obtained conjugates in terms of their biological activity, a series of simple, rapid, sensitive and reproducible biochemical antioxidant assays including FRAP, CUPRAC and ORAC [38] and a more relevant cellular antioxidant activity (CAA [37]) was measured (Table 2). […] Therefore, in this study, we compared two methods with the same mechanism of action: ORAC assay was performed as a classical biochemical method presenting the ability of tested compounds to quench peroxyl radicals generated from AAPH to protect fluorescein from oxidation. This assay serves better as a physical description of the tested compounds [37]. To reflect biological aspect, CAA was measured using the liver carcinoma HepG2 cell line where the compound must enter the cell to fulfil its role as an antioxidant. The CAA assay partially includes the bioavailability, aspects of uptake and metabolism.

[4] = Oxygen radical absorption capacity (ORAC); format: biochemical; settings: fluorescein/AAPH, PBS pH 7.4, 37 °C; mean ± standard error
Procedure: as §1, §3

[5] = covalent retinoyl conjugate, read-out: DPPH radical scavenging activity (IC50), conjugate with retinoic acid
[6] = parent compound alone, read-out: DPPH radical scavenging activity (IC50), parent compound

| SMILES | Stability during ORAC and CAA measurement [1] | FRAP (ferric-reducing antioxidant potential, trolox equivalents) [2] | CUPRAC (cupric reducing antioxidant capacity) [3] | IC50 (DPPH radical scavenging; [5]) | IC50 (HepG2 cell line) | IC50 [4] | IC50 (DPPH radical scavenging; [6]) |
| --- | --- | --- | --- | --- | --- | --- | --- |
| COc1cc([C@H]2Oc3cc([C@H]4Oc5cc(OC(=O)/C=C(C)/C=C/C=C(C)/C=C/C6=C(C)CCCC6(C)C)cc(O)c5C(=O)[C@@H]4O)ccc3O[C@@H]2CO)ccc1O [6a, Silybin A-7-O-retinoate] | unstable and decomposed | 0.038 ± 0.002 *^,# TE | 0.21 ± 0.02 TE | 379 µM | > 50 µM | – | – |
| COc1cc([C@H]2Oc3cc([C@H]4Oc5cc(O)cc(O)c5C(=O)[C@@H]4O)ccc3O[C@@H]2CO)ccc1O [3a, silybin A] | – | 0.278 ± 0.005 TE | 0.20 ± 0.00 TE | – | 10 ± 0.7 µM | 8.5 ± 0.4 µM | 818 ± 22 µM |
| CC1=C(/C=C/C(C)=C/C=C/C(C)=C/C(=O)O)C(C)(C)CCC1 [compound 2, Retinoic acid] | – | 0.62 ± 0.02 TE | 0.10 ± 0.02^f TE | – | 460 ± 211 µM | 13 ± 2 µM | 745 µM and 1480 µM |
| COc1cc([C@H]2Oc3ccc([C@H]4Oc5cc(OC(=O)/C=C(C)/C=C/C=C(C)/C=C/C6=C(C)CCCC6(C)C)cc(O)c5C(=O)[C@@H]4O)cc3O[C@@H]2CO)ccc1O [8a, Isosilybin A-7-O-retinoate] | – | 0.022 ± 0.003 *^,# TE | 0.11 ± 0.01^f TE | 2360 µM | > 500 µM | 174 ± 7 µM | – |
| COc1cc(C2Oc3cc(-c4oc5cc(O)cc(O)c5c(=O)c4OC(=O)/C=C(C)/C=C/C=C(C)/C=C/C4=C(C)CCCC4(C)C)ccc3OC2CO)ccc1O (stereo not drawn) [compound 7, 2,3-Dehydrosilybin AB-3-O-retinoate] | – | 0.034 ± 0.005 *^,# TE | 0.07 ± 0.02^f TE | 734 µM | > 500 µM | 130 ± 7 µM | – |
| COc1cc(C2Oc3cc(-c4oc5cc(O)cc(O)c5c(=O)c4O)ccc3OC2CO)ccc1O (stereo not drawn) [compound 4, 2,3-dehydrosilybin] | – | 4.06 ± 0.05 TE | 0.25 ± 0.00 TE | – | 10.9 ± 0.5 µM | 9.6 ± 0.4 µM | 19.2 ± 0.3 µM |
| COc1cc([C@@H]2Oc3cc([C@H]4Oc5cc(OC(=O)/C=C(C)/C=C/C=C(C)/C=C/C6=C(C)CCCC6(C)C)cc(O)c5C(=O)[C@@H]4O)ccc3O[C@H]2CO)ccc1O [6b, Silybin B-7-O-retinoate] | – | 0.010 ± 0.001 *^,# TE | 0.04 ± 0.01^f TE | 540 µM | > 500 µM | 230 ± 8 µM | – |
| COc1cc([C@H]2Oc3ccc([C@H]4Oc5cc(O)cc(O)c5C(=O)[C@@H]4O)cc3O[C@@H]2CO)ccc1O [5a, isosilybin A] | – | 0.280 ± 0.006 TE | 0.16 ± 0.02 TE | – | > 100 µM | 4.3 ± 1.1 µM | 783 ± 9 µM |
| COc1cc(C2Oc3cc([C@H]4Oc5cc(O)cc(O)c5C(=O)[C@@H]4O)ccc3OC2CO)ccc1O (stereo partly drawn) [3ab, Silybin] | – | 0.335 ± 0.006 TE | 0.17 ± 0.00 TE | – | 11.8 ± 0.3 µM | 7.8 ± 0.7 µM | 472 ± 16 µM |
| COc1cc(C2Oc3cc([C@H]4Oc5cc(OC(=O)/C=C(C)/C=C/C=C(C)/C=C/C6=C(C)CCCC6(C)C)cc(O)c5C(=O)[C@@H]4O)ccc3OC2CO)ccc1O (stereo partly drawn) [6ab, Silybin-7-O-retinoate] | – | 0.03 ± 0.02 *^,# TE | 0.22 ± 0.01 TE | 666 µM | > 500 µM | 91 ± 4 µM | – |
| COc1cc([C@@H]2Oc3cc([C@H]4Oc5cc(O)cc(O)c5C(=O)[C@@H]4O)ccc3O[C@H]2CO)ccc1O [3b, silybin B] | – | 0.268 ± 0.009 TE | 0.16 ± 0.02 TE | – | 6.8 ± 0.5 µM | 8 ± 0.3 µM | 659 ± 29 µM |
| CC1=C(/C=C/C(C)=C/C=C/C(C)=C/CO)C(C)(C)CCC1 [compound 1, Retinol] | – | 1.76 ± 0.04 TE | 0.09 ± 0.01^f TE | – | 1270 ± 147 µM | 169 ± 12 µM | 1480 µM and 745 µM |
